Three molecules from US20070190004A1, “Substances with a probiotic action used in deodorants” (priority 2004, published 2007) can be followed below.

Assay [1] has as its system Staphylococcus epidermidis. The experiment in a line: Growth of S. epidermidis in LB liquid culture with test substance, OD (600 nm) versus control. Format: cell-based. As to conditions: for Growth effect, promoting or inhibiting factor compared to the control: S. epidermidis. As for the experimental part:
(§1) From liquid precultures of S. epidermidis and S. hominis, cultures in LB medium with an optical density OD (600 nm) of 0.05 were inoculated. In parallel to the controls (without the addition of cells or extract), in each case 2 cultures were treated with 1% plant extract and the growth was documented over 30 h by reference to the OD measurement. After 30 h, the difference in the OD of the cultures with extract additive to the corresponding controls (without extract additive, corrected by the value without cells) was determined.
(§2) From liquid precultures of S. epidermidis and S. hominis, cultures in LB medium with an optical density OD (600 nm) of 0.05 were inoculated. In parallel to the controls (without the addition of cells or extract), in each case 2 cultures were treated with 1% plant extract and the growth was documented over 30 h by reference to the OD measurement. After 30 h, the difference in the OD of the cultures with extract additive to the corresponding controls (without extract additive, corrected by the value without cells) was determined. Various hibiscus extracts from Cosmetochem were used, namely “herbasol extract unpreserved carcade in 80% PG,” “carcade (hibiscus) herbasec” and “carcade (hibiscus) herbasol extract oil-soluble.”
(§3) From liquid precultures of S. epidermidis and S. hominis, cultures in LB medium with an optical density OD (600 nm) of 0.05 were inoculated. In parallel to the controls (without the addition of cells or myristate), in each case 2 cultures were treated with 1% myristate derivative and the growth was documented over 8 h by reference to the OD measurement. After 8 h, the difference in the OD of the cultures with myristate additive to the corresponding controls (without myristate additive, corrected by the value without cells) was determined.
(§4) From liquid precultures of S. epidermidis and S. hominis, cultures in LB medium with an optical density OD (600 nm) of 0.05 were inoculated. In parallel to the controls [without the addition of cells or ethylhexyl glycerol (Sensiva SC 50, Schülke&Mayr)], in each case 2 cultures were treated with 0.1% ethylhexyl glycerol and the growth was documented over 24 h by reference to the OD measurement. After 4 h, 8 h and 24 h, the difference in the OD of the cultures with ethylhexyl glycerol to the corresponding controls (without extract additive, corrected by the value without cells) was determined.

The test system of the next assay is Staphylococcus hominis. The experiment in a line: Growth of S. hominis in LB liquid culture with test substance, OD (600 nm) versus control. Format: cell-based. As to conditions: for Growth effect, promoting or inhibiting factor compared to the control: S. hominis. The method, then:
as §1, §2, §3, §4

The mark [2] stands for this setting: 1% myristate derivative, after 8 h, LB medium, OD 600 nm.

As to `CCCCCCCCCCCCCC(=O)OCC` [Ethyl myristate, ethyl myristate], the “Effect on growth of S. epidermidis (in words)” value in assay [1] (1% myristate derivative, 8 h) is recorded as “moderate promotion of S. epidermidis”. For the same molecule, the results for the “Growth effect, promoting or inhibiting factor compared to the control” value (in assay [1] (setting [2]); in the assay on Staphylococcus hominis (setting [2])) were 1.44 and 0.22, respectively. Also, in the assay on Staphylococcus hominis (1% myristate derivative, 8 h), the “Effect on growth of S. hominis (in words)” value is listed as “inhibiting action on S. hominis”.
For the molecule `CCCCCCCCCCCCCC(=O)OC(C)C` [Isopropyl myristate, isopropyl myristate], the “Effect on growth of S. epidermidis (in words)” value in assay [1] (1% myristate derivative, 8 h) is “moderate promotion of S. epidermidis”. Further, the results for the “Growth effect, promoting or inhibiting factor compared to the control” value (in assay [1] (setting [2]); with Staphylococcus hominis (setting [2])) were 1.24 and 0.50, respectively. Besides, the “Effect on growth of S. hominis (in words)” value with Staphylococcus hominis (1% myristate derivative, 8 h) is recorded as “inhibiting action on S. hominis”.
Consider `CCCCC(CC)COCC(O)CO` (stereo not drawn) [ethylhexyl glycerol, 1-(2-Ethylhexyl) glycerol ether], for which the “Growth effect, promoting or inhibiting factor compared to the control” value in assay [1] (0.1% ethylhexyl glycerol, 4 h) is 1.06; in assay [1] (0.1% ethylhexyl glycerol, 8 h), 1.06; in assay [1] (0.1% ethylhexyl glycerol, 24 h) it was 1.10; with Staphylococcus hominis (0.1% ethylhexyl glycerol, 4 h), 0.87; with Staphylococcus hominis (0.1% ethylhexyl glycerol, 8 h) it was 0.92; in the assay with Staphylococcus hominis (0.1% ethylhexyl glycerol, 24 h), 0.76. The “Effect on growth of S. hominis (in words)” value in the assay on Staphylococcus hominis (0.1% ethylhexyl glycerol, up to 24 h) is reported as “inhibits S. hominis”.
